“Also recorded” adds a separate entry of the source. Like-named read-outs stand apart in the source and are kept apart here.
What was measured:
[1] = test system: Fasciola hepatica Newly Excysted Juveniles (NEJs); assay: whole organism screen of Fasciola hepatica NEJs: microscopic scoring of phenotype and motility (viability)
Experimental: The effect of test compounds in a whole organism screen of Fasciola hepatica Newly Excysted Juveniles (NEJs) was investigated along with DMSO (− control), triclabendazole (10 μM, + control) and media) and their anti-flukicidal activity was assessed at both 24 and 72 hours.
(§1) The viability detection of Fasciola hepatica NEJs is based on qualitative microscopic evaluation of motility and phenotype and additionally measuring propidium iodide to make use of the differential uptake of fluorophores (such as propidium iodide) by living organisms.
(§2) NEJs were prepared according to Edwards et al.. Approximately 12 NEJs/compound were cultivated. NEJ/compound co-cultures were placed at 37 °C in a humidified atmosphere containing 5% CO2. NEJ/compound co-cultures were incubated for a total of 72 hrs. At 24h, an assessment of the gross phenotype was made for all NEJ/compound co-cultures and bright field images were captured. At 72 h both phenotype and motility were quantified in comparison to live DMSO controls based on a microscopic scoring method detailed in [1] as well as summarised in Table 1 below.

[2] = test system: Fasciola hepatica Newly Excysted Juveniles (NEJs); assay: Propidium Iodide (PI) uptake by Fasciola hepatica NEJs in co-culture with compound
Experimental: as §1, §2
Propidium Iodide (PI) was then added to the NEJ/compound co-cultures (to a final concentration of […]) and these co-cultures were imaged under both Bright field and Texas Red settings.

[3] = test system: common liver fluke (Fasciola hepatica); conditions: cited from earlier work; for effectiveness against liver fluke stages: mature flukes and immature stages (early immature 1 to 6 weeks old, immature 6 to 9 weeks old)
[4] = 72 h, in comparison to live DMSO controls, triclabendazole + control at 10 μM, concentration of test compounds not given
[5] = overall conclusion from viability, phenotype/motility and PI

SMILES	Score (mean) motility 1 to 5 (highest) [1, 4]	Score (mean) phenotype 1 to 6 (highest) [1, 4]	active against Fasciola hepatica NEJs during the viability assessment ([1]; after 24 hours)	phenotype change and impaired motility significantly different to DMSO ([1]; after 72 hours)	significant activity against juvenile stages of Fasciola hepatica [1, 5]	effectiveness against liver fluke stages [3]	further results
Cc1cc(C2=NO[C@@](c3cc(Cl)c(Cl)c(Cl)c3)(C(F)(F)F)C2)sc1C(=O)NCC(=O)NCC(F)(F)F (stereo in doubt) [Compound 4, 3-methyl-N-(2-oxo-2-((2,2,2-trifluoroethyl)amino)ethyl)-5-[5-(3,4,5-trichlorophenyl)-5-(trifluoromethyl)-4,5-dihydroisoxazol-3-yl]thiophene-2-carboxamide]							Score (mean) motility 1 to 5 (highest) [1]: 5.0; Score (mean) phenotype 1 to 6 (highest) [1]: 5.7; active against Fasciola hepatica NEJs during the viability assessment [1]: active; phenotype change and impaired motility significantly different to DMSO [1]: both a phenotype change and impaired motility significantly different to DMSO; significant activity against juvenile stages of Fasciola hepatica [1]: significant activity; Propidium Iodide positivity [2]: > 90%
CS(=O)(=O)CC(=O)N1CC2(C1)OCc1cc(C3=NO[C@@](c4cc(Cl)c(F)c(Cl)c4)(C(F)(F)F)C3)ccc12 (stereo in doubt) [Compound 5, 1-(5′-(5-(3,5-dichloro-4-fluorophenyl)-5-(trifluoromethyl)-4,5-dihydroisoxazol-3-yl)-3′H-spiro[azetidine-3,1′-isobenzofuran]-1-yl)-2-(methylsulfonyl)ethan-1-one]	5.0	5.7	active	both a phenotype change and impaired motility significantly different to DMSO	significant activity		
Cc1cc(C2=NOC(c3cc(Cl)cc(Cl)c3)(C(F)(F)F)C2)ccc1C(=O)NCC(=O)NCC(F)(F)F (centres unmarked) [Compound 1, 4-[5-(3,5-dichlorophenyl)-5-trifluoromethyl-4,5-dihydroisoxazol-3-yl]-2-methyl-N-[(2,2,2-trifluoro-ethylcarbamoyl)-methyl]-benzamide]							Score (mean) motility 1 to 5 (highest) [1]: 5.0; Score (mean) phenotype 1 to 6 (highest) [1]: 5.5; active against Fasciola hepatica NEJs during the viability assessment [1]: active; phenotype change and impaired motility significantly different to DMSO [1]: both a phenotype change and impaired motility significantly different to DMSO; significant activity against juvenile stages of Fasciola hepatica [1]: significant activity
Cc1cc(C2=NO[C@@](c3cc(Cl)cc(Cl)c3)(C(F)(F)F)C2)ccc1C(=O)NCC(=O)NCC(F)(F)F [Compound 2]							Score (mean) motility 1 to 5 (highest) [1]: 5.0; Score (mean) phenotype 1 to 6 (highest) [1]: 5.8; active against Fasciola hepatica NEJs during the viability assessment [1]: active; phenotype change and impaired motility significantly different to DMSO [1]: both a phenotype change and impaired motility significantly different to DMSO; significant activity against juvenile stages of Fasciola hepatica [1]: significant activity; Propidium Iodide positivity [2]: > 90%
O=C(CNC(=O)c1ccc(C2=NOC(c3cc(Cl)cc(C(F)(F)F)c3)(C(F)(F)F)C2)c2ccccc12)NCC(F)(F)F (centres unmarked) [Compound 3, 4-[5-[3-chloro-5-(trifluoromethyl)phenyl]-4,5-dihydro-5-(trifluoromethyl)-3-isoxazolyl]-N-[2-oxo-2-[(2,2,2-trifluoroethyl)amino]ethyl]-1-naphthalene-carboxamide]	5.0	5.7	active	both a phenotype change and impaired motility significantly different to DMSO	significant activity		
C#CCNC(=O)CNC(=O)c1sc(C2=NO[C@@](c3cc(Cl)c(Cl)c(Cl)c3)(C(F)(F)F)C2)cc1C [Compound 6]	5.0	5.6	active	both a phenotype change and impaired motility significantly different to DMSO	significant activity		
C#CCNC(=O)CNC(=O)c1sc(C2=NO[C@@](c3cc(Cl)c(Cl)c(Cl)c3)(C(F)(F)F)C2)c2c1CCCC2 [Compound 7]	4.8	5.7	active	both a phenotype change and impaired motility significantly different to DMSO	significant activity		
C#CCNC(=O)CNC(=O)c1sc(C2=NO[C@](c3cc(Cl)c(Cl)c(Cl)c3)(C(F)(F)F)C2)c2c1CCCC2 [Compound 8]	5.0	5.7	active	both a phenotype change and impaired motility significantly different to DMSO	significant activity		
Cc1cc(C2=NSC(c3cc(Cl)cc(Cl)c3)(C(F)(F)F)C2)ccc1C(=O)NCC(=O)NCC(F)(F)F (centres unmarked) [Compound 9]	5.0	5.7	active	both a phenotype change and impaired motility significantly different to DMSO	significant activity		
Cn1nc(C(F)(F)C(F)(F)F)c(C(F)(F)F)c1-n1cc(-c2ccc(Cl)c(C(=O)NC3(C#N)CC3)c2)cn1 [Compound 10, 2-chloro-N-(1-cyanocyclopropyl)-5-[1-[2-methyl-5-(1,1,2,2,2-pentafluoroethyl)-4-(trifluoromethyl)pyrazol-3-yl]pyrazol-4-yl]benzamide]	4.8	3.8	active	both a phenotype change and impaired motility significantly different to DMSO			
CSc1nc2cc(Cl)c(Oc3cccc(Cl)c3Cl)cc2[nH]1 [Triclabendazole]	5.0	5.8				effective against mature stages of the common liver fluke (Fasciola hepatica) as well as all immature stages	effectiveness against early immature liver fluke larvae ([3]; early immature larvae (1 to 6 weeks old)): effective against all early immature liver fluke larvae
CCCSc1ccc2nc(NC(=O)OC)[nH]c2c1 [albendazole]						only effective against the mature flukes and not against the immature stages; also recorded: effective only against mature flukes	
Nc1cc(C(Cl)=C(Cl)Cl)c(S(N)(=O)=O)cc1S(N)(=O)=O [clorsulon]						effective only against mature flukes	
Cc1cc(C(C#N)c2ccc(Cl)cc2)c(Cl)cc1NC(=O)c1cc(I)cc(I)c1O (centres unmarked) [closantel]						only effective against the mature flukes and not against the immature stages	effectiveness against 3-8 weeks old flukes ([3]; 3-8 weeks old flukes): partially effective; effectiveness against mature flukes ([3]; mature flukes): fully effective
N#Cc1cc(I)c(O)c([N+](=O)[O-])c1 [nitroxynil]						only effective against the mature flukes and not against the immature stages; also recorded: effective against fluke from 8 weeks post infection	
O=C(Nc1cc(Cl)cc(Cl)c1O)c1c(O)c(Cl)cc(Cl)c1Cl [oxyclozanide]						only effective against the mature flukes and not against the immature stages; also recorded: effective only against mature flukes	
